In paper PMC6196238, “Novobiocin, a Newly Found TRPV1 Inhibitor, Attenuates the Expression of TRPV1 in Rat Intestine and Intestinal Epithelial Cell Line IEC-6” (Frontiers in Pharmacology, 2018):

Experiments:
[1] = tested on: IEC-6/TRPV1+ cells; assay: MTT cell viability assay; settings: for Cell Survival: IEC-6/TRPV1+
Experimental: (§1) The rat intestinal epithelial cell line IEC-6, purchased from Kunming Institute of Zoology. CAS, was cultured in Dulbecco’s Modified Eagle’s Medium (DMEM) (Gibco, Grand Island, NY, United States) supplemented with 10% fetal bovine serum (FBS; Gibco) at 37°C in a humidified atmosphere of 5% CO2.
(§2) The plasmid pENTER containing the TRPV1 coding sequence NM_080704 was used as template in a PCR with the following primers: 5′-[…]-3′ (forward) and 5′-[…] (reverse). And synthetic small interfering RNA (siRNA) specific for rat TRPV1 (TRPV1-siRNA) was purchased from Vigene Bioscience (Rockville, MD, United States) with the following sequences: 5′-[…]-3′ (forward) and 5′-[…]-3′ (reverse) for TRPV1-siRNA. The transfecting process was conducted by using the lipofectamin® 3000 transfection reagent (Invitrogen^TM, Carlsbad, CA, United States), according to the manufacturer’s protocol.
(§3) The transfected cells were plated in 96-well plates. […] Optical density at 490 nm was used to evaluate cell viability in 96-well plates.

[2] = tested on: IEC-6/TRPV1- cells; assay: MTT cell viability assay
Experimental: as §1, §2, §3

[3] = in vivo; settings: SD, rat, po, 10 mg
Experimental: Blood samples were collected into heparinized tubes before and at 30, 60, 120, 180, 210, 240, 270, 330, 390, and 720 min after administration. Blood samples were immediately centrifuged at 4000 g (4°C) for 10 min to obtain plasma. The plasma samples were stored at -80°C until LC-MS/MS analysis.
The plasma samples and protein sample with 100 μL were extracted with 400 μL of methanol involving IS (verapamil 50 ng⋅mL^-1) by vortex-mix for 1 min, ultrasonic extraction for 1 h, and then centrifugation for 30 min at 15000 g. The supernatant was transferred into a borosilicate glass and 2 μL was subjected to LC-MS/MS analysis.
The LC-MS/MS system consisted of Agilent 6460 Triple Quadrupole LC/MS systems via an ESI interface. The samples were separated on an Agilent ZORBAX SB-C18 column (3.5 μm, 2.1 mm × 150 mm) and the column temperature was maintained at 30°C. The mobile phase consisted of acetonitrile and water contains 0.1% formic acid (70:30, v/v). The flow rate was 0.2 mL⋅min^-1. The ion source was an electrospray ionization interface in the positive mode. […] Other parameters were as follows: spray voltage, 4.0 kV; capillary temperature, 350°C; gas flow, 10 L⋅min^-1.

[4] = tested on: IEC-6/TRPV1+ cells; assay: LDH release assay (cell membrane integrity); settings: for LDH release: IEC-6/TRPV1+; for LDH release compared with the control: NOVO 2.5, 5, 10 μM, CAP 25 μM, RR 10 μM, SB-705498 0.1 μM, 12 and 24 h
Experimental: (§4) The transfected cells were plated in 12-well plates. […] The cells were centrifuged at 1000 g for 5 min. Next, 50 μL of supernatants were aspirated and the rest of supernatants were discarded. The cells were washed twice with deionized water and then lysed by ultrasonic wave cracker. And then cell lysate and supernatants were analyzed by using LDH Release Assay Kit, according to the manufacturer’s instructions.

[5] = tested on: IEC-6/TRPV1- cells; assay: LDH release assay (cell membrane integrity)
Experimental: as §4

[6] = tested on: rat intestine (jejunum, ileum, colon); assay: Ussing chamber intestinal permeability of CAP; type: in vitro ADME; settings: CAP + 10 μM inhibitor; for fold-inhibition factor of CAP Papp: vs CAP only
Experimental: NOVO was also prepared in HEPES buffer to yield final concentration at 5, 10, 25, 50, 100, and 200 μM. […] Different portions of the rat intestine were excised and flushed with HEPES buffer, including jejunum (after the first 5 cm of the top of small intestine), ileum (the distal part of small intestine) and colon (proximal to cecal-colonic junction), and incubated in the ice-cold HEPES buffer. Next, 3–4 cm of the intestine was clipped, and the serosa was removed rapidly on an ice-cold glass. The intestinal segments were fixed in the Ussing chamber. Finally, 7 mL of HEPES buffer was added to the receiving side while an equal volume of drug solution to the dosing side. […] All the samples were kept at -20°C till HPLC analysis.
In brief, samples were injected into a C18 column (3.5 μm, 2.1 mm × 100 mm). An aliquot of 20 μL of sample solutions were injected.

[7] = tested on: rat intestine (jejunum, ileum, colon); assay: Ussing chamber intestinal permeability of NOVO; type: in vitro ADME; settings: NOVO in combination with 10 μM RR; Figure 1
Experimental: The intestinal permeability of CAP in vitro was performed using Ussing chamber. […] NOVO was also prepared in HEPES buffer to yield final concentration at 5, 10, 25, 50, 100, and 200 μM. Animal intestinal segments for the permeability study were prepared in accordance with the experimental method as described previously ([Yodoya et al., 1994]; [Wallon et al., 2005]; [Duan et al., 2013]). Briefly, male SD rats, weighting 240–260 g, were fasted for 18 h before each experiment and anesthetized by injecting 10 % chloral hydrate anesthesia (i.p.). Different portions of the rat intestine were excised and flushed with HEPES buffer, including jejunum (after the first 5 cm of the top of small intestine), ileum (the distal part of small intestine) and colon (proximal to cecal-colonic junction), and incubated in the ice-cold HEPES buffer. Next, 3–4 cm of the intestine was clipped, and the serosa was removed rapidly on an ice-cold glass. The intestinal segments were fixed in the Ussing chamber. Finally, 7 mL of HEPES buffer was added to the receiving side while an equal volume of drug solution to the dosing side. All the chambers were maintained at 37°C by using a warm water-circulating pump and a mixture of 95% O2 and 5% CO2 aerated to ensure the activity of the membrane. […]

[8] = tested on: IEC-6/TRPV1- cells; assay: CAP accumulation assay; type: cell-based, rat; settings: 2.5-10 μM NOVO, 10 μM RR, 0.1 μM SB-705498, Figure 3D
Experimental: The transfected cells were grown to 80% confluence in 12-well plates. The experiment was divided into three parts: […] SB-705498, RR or NOVO was then added to the medium for another 15, 30, and 60 min. […] After incubation, the medium was removed, and cell layers were washed three times with ice-cold PBS and then extracted with Membrane Protein Extraction Kit (Thermo Fisher Scientific Inc, Rockford, IL, United States), according to the manufacturer’s protocol. The cytosolic protein extracts were stored at -80°C until LC-MS/MS analysis. The plasma samples and protein sample with 100 μL were extracted with 400 μL of methanol involving IS (verapamil 50 ng⋅mL^-1) by vortex-mix for 1 min, ultrasonic extraction for 1 h, and then centrifugation for 30 min at 15000 g. The supernatant was transferred into a borosilicate glass and 2 μL was subjected to LC-MS/MS analysis. The LC-MS/MS system consisted of Agilent 6460 Triple Quadrupole LC/MS systems via an ESI interface. The samples were separated on an Agilent ZORBAX SB-C18 column (3.5 μm, 2.1 mm × 150 mm) and the column temperature was maintained at 30°C. The mobile phase consisted of acetonitrile and water contains 0.1% formic acid (70:30, v/v). The flow rate was 0.2 mL⋅min^-1. The ion source was an electrospray ionization interface in the positive mode. […] Other parameters were as follows: spray voltage, 4.0 kV; capillary temperature, 350°C; gas flow, 10 L⋅min^-1.

SMILES: COc1cc(CNC(=O)CCCC/C=C/C(C)C)ccc1O [CAP, capsaicin]
- Cell Survival ([1]; 12.5 μM, incubation 12 h): 1.029 ± 0.180
- Cell Survival ([1]; 12.5 μM, incubation 24 h): 0.916 ± 0.163
- Cell Survival ([1]; 25 μM, incubation 12 h): 0.896 ± 0.199
- Cell Survival ([1]; 25 μM, incubation 24 h): 0.822 ± 0.102
- Cell Survival ([1]; 50 μM, incubation 12 h): 0.820 ± 0.201
- Cell Survival ([1]; 50 μM, incubation 24 h): 0.739 ± 0.012
- concentration up to which more than 80% of the cells were viable ([1]; both IEC-6/TRPV1+ and IEC-6/TRPV1-, incubated 24 h): 25 µM
- Cell Survival ([2]; 12.5 μM, incubation 12 h): 0.969 ± 0.310
- Cell Survival ([2]; 12.5 μM, incubation 24 h): 0.934 ± 0.111
- Cell Survival ([2]; 25 μM, incubation 12 h): 0.851 ± 0.216
- Cell Survival ([2]; 25 μM, incubation 24 h): 0.878 ± 0.096
- Cell Survival ([2]; 50 μM, incubation 12 h): 0.792 ± 0.316
- Cell Survival ([2]; 50 μM, incubation 24 h): 0.801 ± 0.171
- AUC(0-t) [3]: 230 ng·h/mL
- Cmax [3]: 52.2 ± 8.92 ng/mL
- Tmax ([3]; Tmax of CAP): 3.9 h
- Tmax ([3]; peak time (Tmax) of CAP): ~4 h
- LDH release ([4]; 25 μM, 12 h): 0.380 ± 0.165 gprot⋅mL ^-1
- LDH release ([4]; 25 μM, 24 h): 0.311 ± 0.051 gprot⋅mL ^-1
- LDH release compared with the control [4]: not any significant difference
- LDH release ([5]; 25 μM, 12 h): 0.680 ± 0.205 gprot⋅mL ^-1
- LDH release ([5]; 25 μM, 24 h): 0.462 ± 0.101 gprot⋅mL ^-1

SMILES: N.N.N.N.N.N.N.N.N.N.N.N.N.N.[Cl-].[Cl-].[Cl-].[Cl-].[Cl-].[Cl-].[O-2].[O-2].[Ru+3].[Ru+3].[Ru+4] [RR, ruthenium red]
- Papp of CAP ([6]; colon): 12.18 ± 2.90 ×10^-6, cm⋅s^-1
- fold-inhibition factor of CAP Papp ([6]; colon): 1.64 fold
- Papp of CAP ([6]; ileum): 5.06 ± 0.57 ×10^-6, cm⋅s^-1
- fold-inhibition factor of CAP Papp ([6]; ileum): 1.46 fold
- Papp of CAP ([6]; jejunum): 2.54 ± 0.40 ×10^-6, cm⋅s^-1
- fold-inhibition factor of CAP Papp ([6]; jejunum): 1.23 fold
- effect on permeability of NOVO across intestinal segments [7]: no change
- accumulation of CAP, co-incubation [8]: did not change
- LDH release ([4]; 10 μM, 12 h): 0.406 ± 0.056 gprot⋅mL ^-1
- LDH release ([4]; 10 μM, 24 h): 0.301 ± 0.061 gprot⋅mL ^-1
- LDH release compared with the control [4]: not any significant difference
- LDH release ([5]; 10 μM, 12 h): 0.552 ± 0.039 gprot⋅mL ^-1
- LDH release ([5]; 10 μM, 24 h): 0.501 ± 0.094 gprot⋅mL ^-1
